{"source": "paper PMC7265429", "about": "“Characterization of a new small-molecule inhibitor of HDAC6 in glioblastoma” (Cell Death & Disease, 2020)", "system": "GNS166 cells", "test": "Microarray whole-transcriptome gene expression analysis", "type": "cell-based, human", "conditions": "5 µM SAHA vs DMSO", "method": "Whole-transcriptome analysis was performed from 300 ng of RNA using HuGene-2_0-st-v1 expression array (Affymetrix), which covers 48,226 transcripts. Raw data were first checked for quality purposes through the Affymetrix® Expression Console™ Software v1.4.1 and TAC software v4.0. Then, data were normalized using the Robust Multi-array Average (RMA) and analyzed by Limma tool. Probesets with FDR-corrected p-values smaller than 0.05 were selected. Functional enrichment on Gene Ontology (GO) biological processes was performed on a smaller subset of the differentially expressed genes (corrected p-value < 0.001) by means of Broad Institute GSEA. […] The data that support this study have been deposited in NCBI´s Gene Expression Omnibus and are accessible through GEO series accession number GSE143887."}
{"smiles": "O=C(CCCCCCC(=O)Nc1ccccc1)NO", "note": "[SAHA, Suberoylanilide hydroxamic acid]", "values": [{"measurement": "logFC, unannotated transcript", "setting": "transcript 23067838", "value": 2.48}, {"measurement": "logFC, unannotated transcript", "setting": "transcript 23070274", "value": 1.496}, {"measurement": "logFC, unannotated transcript", "setting": "transcript 23074046", "value": 2.262}, {"measurement": "logFC, unannotated transcript", "setting": "transcript 23076255", "value": 1.316}, {"measurement": "logFC, unannotated transcript", "setting": "transcript 23076621", "value": 1.363}, {"measurement": "logFC CLCN4", "setting": "transcript TC0X00006593.hg.1", "value": 1.5774}, {"measurement": "logFC GRPR", "setting": "transcript TC0X00006686.hg.1", "value": 2.105}, {"measurement": "logFC CNKSR2", "setting": "transcript TC0X00006758.hg.1", "value": 1.439}, {"measurement": "logFC TCEAL2", "setting": "transcript TC0X00007965.hg.1", "value": 1.805}, {"measurement": "logFC CXorf57", "setting": "transcript TC0X00008052.hg.1", "value": 2.567}, {"measurement": "logFC RNF128", "setting": "transcript TC0X00008054.hg.1", "value": 2.588}, {"measurement": "logFC TBC1D8B", "setting": "transcript TC0X00008055.hg.1", "value": 1.963}, {"measurement": "logFC BCORL1", "setting": "transcript TC0X00008394.hg.1", "value": 1.89}, {"measurement": "logFC SPANXB1", "setting": "transcript TC0X00008599.hg.1", "value": 3.183}, {"measurement": "logFC SPANXA2", "setting": "transcript TC0X00008608.hg.1", "value": 1.528}, {"measurement": "logFC GABRQ", "setting": "transcript TC0X00008747.hg.1", "value": 2.318}, {"measurement": "logFC SPRY3", "setting": "transcript TC0X00008881.hg.1", "value": 1.925}, {"measurement": "logFC ANOS1", "setting": "transcript TC0X00009025.hg.1", "value": 2.202}, {"measurement": "logFC TMEM47", "setting": "transcript TC0X00009356.hg.1", "value": 2.2}, {"measurement": "logFC SYN1", "setting": "transcript TC0X00009576.hg.1", "value": 1.838}, {"measurement": "logFC SLC7A3", "setting": "transcript TC0X00009972.hg.1", "value": 2.306}, {"measurement": "logFC PCDH19", "setting": "transcript TC0X00010326.hg.1", "value": 2.715}, {"measurement": "logFC GPC3", "setting": "transcript TC0X00010851.hg.1", "value": 3.405}, {"measurement": "logFC SPANXC", "setting": "transcript TC0X00010990.hg.1", "value": 2.79}, {"measurement": "logFC TSPAN7", "setting": "transcript TC0X00011279.hg.1", "value": 3.632}, {"measurement": "logFC SPANXD", "setting": "transcript TC0X00011403.hg.1", "value": 2.719}, {"measurement": "logFC SPRY3", "setting": "transcript TC0Y00006855.hg.1", "value": 1.925}, {"measurement": "logFC AZIN2", "setting": "transcript TC0100007705.hg.1", "value": 2.1884}, {"measurement": "logFC SGIP1", "setting": "transcript TC0100008631.hg.1", "value": 2.667}, {"measurement": "logFC WDR63", "setting": "transcript TC0100008897.hg.1", "value": 2.0565}, {"measurement": "logFC PLPPR4", "setting": "transcript TC0100009181.hg.1", "value": 3.131}, {"measurement": "logFC RIIAD1", "setting": "transcript TC0100009969.hg.1", "value": 1.761}, {"measurement": "logFC RGS4", "setting": "transcript TC0100010393.hg.1", "value": 2.615}, {"measurement": "logFC RGL1", "setting": "transcript TC0100010874.hg.1", "value": 1.6746}, {"measurement": "logFC HMCN1", "setting": "transcript TC0100010921.hg.1", "value": 2.357}, {"measurement": "logFC PLA2G4A", "setting": "transcript TC0100010939.hg.1", "value": 2.146}, {"measurement": "logFC NFASC", "setting": "transcript TC0100011316.hg.1", "value": 2.226}, {"measurement": "logFC SYT14", "setting": "transcript TC0100011463.hg.1", "value": 1.552}, {"measurement": "logFC PADI2", "setting": "transcript TC0100013076.hg.1", "value": 2.104}, {"measurement": "logFC RAB3B", "setting": "transcript TC0100014191.hg.1", "value": 2.825}, {"measurement": "logFC EXTL2", "setting": "transcript TC0100015079.hg.1", "value": 1.8773}, {"measurement": "logFC TXNIP", "setting": "transcript TC0100015598.hg.1", "value": 1.6929}, {"measurement": "logFC TDRKH", "setting": "transcript TC0100015803.hg.1", "value": 1.45}, {"measurement": "logFC CRABP2", "setting": "transcript TC0100016018.hg.1", "value": 2.073}, {"measurement": "logFC TNFSF18", "setting": "transcript TC0100016427.hg.1", "value": 2.171}, {"measurement": "logFC NMNAT2", "setting": "transcript TC0100016649.hg.1", "value": 2.678}, {"measurement": "logFC KCNT2", "setting": "transcript TC0100016822.hg.1", "value": 1.691}, {"measurement": "logFC SUSD4", "setting": "transcript TC0100017446.hg.1", "value": 2.012}, {"measurement": "logFC CHML", "setting": "transcript TC0100017948.hg.1", "value": 2.064}, {"measurement": "logFC EFNA3", "setting": "transcript TC0100018303.hg.1", "value": 2.427}, {"measurement": "logFC CREG1", "setting": "transcript TC0100018528.hg.1", "value": 1.58}, {"measurement": "logFC ATP6V1C2", "setting": "transcript TC0200006703.hg.1", "value": 1.305}, {"measurement": "logFC DPYSL5", "setting": "transcript TC0200007047.hg.1", "value": 2.839}, {"measurement": "logFC CHAC2", "setting": "transcript TC0200007590.hg.1", "value": 1.314}, {"measurement": "logFC MERTK", "setting": "transcript TC0200008894.hg.1", "value": 2.244}, {"measurement": "logFC B3GALT1", "setting": "transcript TC0200009889.hg.1", "value": 2.683}, {"measurement": "logFC FAM171B", "setting": "transcript TC0200010219.hg.1", "value": 2.2716}, {"measurement": "logFC MAP2", "setting": "transcript TC0200010636.hg.1", "value": 3.414}, {"measurement": "logFC BCL11A", "setting": "transcript TC0200012713.hg.1", "value": 2.328}, {"measurement": "logFC PAIP2B", "setting": "transcript TC0200013021.hg.1", "value": 1.841}, {"measurement": "logFC KCNH7", "setting": "transcript TC0200014775.hg.1", "value": 2.8124}, {"measurement": "logFC SCN9A", "setting": "transcript TC0200014819.hg.1", "value": 2.356}, {"measurement": "logFC LRP2", "setting": "transcript TC0200014851.hg.1", "value": 2.542}, {"measurement": "logFC FKBP7", "setting": "transcript TC0200015082.hg.1", "value": 2.583}, {"measurement": "logFC CALCRL", "setting": "transcript TC0200015193.hg.1", "value": 2.705}, {"measurement": "logFC SLC40A1", "setting": "transcript TC0200015211.hg.1", "value": 1.178}, {"measurement": "logFC MSTN", "setting": "transcript TC0200015221.hg.1", "value": 1.434}, {"measurement": "logFC STAT4", "setting": "transcript TC0200015246.hg.1", "value": 1.771}, {"measurement": "logFC EPHA4", "setting": "transcript TC0200015815.hg.1", "value": 1.855}, {"measurement": "logFC ITPR1", "setting": "transcript TC0300006477.hg.1", "value": 1.259}, {"measurement": "logFC GRAMD1C", "setting": "transcript TC0300008371.hg.1", "value": 3.533}, {"measurement": "logFC STXBP5L", "setting": "transcript TC0300008524.hg.1", "value": 1.686}, {"measurement": "logFC TMEM108", "setting": "transcript TC0300008853.hg.1", "value": 1.4353}, {"measurement": "logFC PLS1", "setting": "transcript TC0300009033.hg.1", "value": 1.34}, {"measurement": "logFC MLF1", "setting": "transcript TC0300009310.hg.1", "value": 1.587}, {"measurement": "logFC SERPINI1", "setting": "transcript TC0300009412.hg.1", "value": 3.206}, {"measurement": "logFC GPR160", "setting": "transcript TC0300009459.hg.1", "value": 1.716}, {"measurement": "logFC VGLL3", "setting": "transcript TC0300011706.hg.1", "value": 1.982}, {"measurement": "logFC IGSF11", "setting": "transcript TC0300012109.hg.1", "value": 2.1969}, {"measurement": "logFC SLITRK3", "setting": "transcript TC0300013022.hg.1", "value": 1.701}, {"measurement": "logFC LAMP3", "setting": "transcript TC0300013336.hg.1", "value": 2.279}, {"measurement": "logFC CLDN1", "setting": "transcript TC0300013520.hg.1", "value": 1.599}, {"measurement": "logFC CEP19", "setting": "transcript TC0300013719.hg.1", "value": 1.62}, {"measurement": "logFC IFT80", "setting": "transcript TC0300014074.hg.1", "value": 1.3192}, {"measurement": "logFC CCDC39", "setting": "transcript TC0300014078.hg.1", "value": 2.854}, {"measurement": "logFC WDR19", "setting": "transcript TC0400007280.hg.1", "value": 1.361}, {"measurement": "logFC GABRB1", "setting": "transcript TC0400007419.hg.1", "value": 2.377}, {"measurement": "logFC CYP2U1", "setting": "transcript TC0400008347.hg.1", "value": 1.641}]}
